Tests used:
125I-TGF-β1-α2M* complex = molecular target: T1, 125I-TGF-β1-α2M* complex (Homo sapiens, UniProt P01023); experiment: Dissociation of preformed 125I-TGF-β1-α2M* complex; assay type: binding; settings: added after 30 min preincubation of complex
T1 construct: was purified from pooled citrate-treate human plasma; from tissue; host or cells: pooled citrate-treated human plasma
T1 sequence (P01023 24-1474): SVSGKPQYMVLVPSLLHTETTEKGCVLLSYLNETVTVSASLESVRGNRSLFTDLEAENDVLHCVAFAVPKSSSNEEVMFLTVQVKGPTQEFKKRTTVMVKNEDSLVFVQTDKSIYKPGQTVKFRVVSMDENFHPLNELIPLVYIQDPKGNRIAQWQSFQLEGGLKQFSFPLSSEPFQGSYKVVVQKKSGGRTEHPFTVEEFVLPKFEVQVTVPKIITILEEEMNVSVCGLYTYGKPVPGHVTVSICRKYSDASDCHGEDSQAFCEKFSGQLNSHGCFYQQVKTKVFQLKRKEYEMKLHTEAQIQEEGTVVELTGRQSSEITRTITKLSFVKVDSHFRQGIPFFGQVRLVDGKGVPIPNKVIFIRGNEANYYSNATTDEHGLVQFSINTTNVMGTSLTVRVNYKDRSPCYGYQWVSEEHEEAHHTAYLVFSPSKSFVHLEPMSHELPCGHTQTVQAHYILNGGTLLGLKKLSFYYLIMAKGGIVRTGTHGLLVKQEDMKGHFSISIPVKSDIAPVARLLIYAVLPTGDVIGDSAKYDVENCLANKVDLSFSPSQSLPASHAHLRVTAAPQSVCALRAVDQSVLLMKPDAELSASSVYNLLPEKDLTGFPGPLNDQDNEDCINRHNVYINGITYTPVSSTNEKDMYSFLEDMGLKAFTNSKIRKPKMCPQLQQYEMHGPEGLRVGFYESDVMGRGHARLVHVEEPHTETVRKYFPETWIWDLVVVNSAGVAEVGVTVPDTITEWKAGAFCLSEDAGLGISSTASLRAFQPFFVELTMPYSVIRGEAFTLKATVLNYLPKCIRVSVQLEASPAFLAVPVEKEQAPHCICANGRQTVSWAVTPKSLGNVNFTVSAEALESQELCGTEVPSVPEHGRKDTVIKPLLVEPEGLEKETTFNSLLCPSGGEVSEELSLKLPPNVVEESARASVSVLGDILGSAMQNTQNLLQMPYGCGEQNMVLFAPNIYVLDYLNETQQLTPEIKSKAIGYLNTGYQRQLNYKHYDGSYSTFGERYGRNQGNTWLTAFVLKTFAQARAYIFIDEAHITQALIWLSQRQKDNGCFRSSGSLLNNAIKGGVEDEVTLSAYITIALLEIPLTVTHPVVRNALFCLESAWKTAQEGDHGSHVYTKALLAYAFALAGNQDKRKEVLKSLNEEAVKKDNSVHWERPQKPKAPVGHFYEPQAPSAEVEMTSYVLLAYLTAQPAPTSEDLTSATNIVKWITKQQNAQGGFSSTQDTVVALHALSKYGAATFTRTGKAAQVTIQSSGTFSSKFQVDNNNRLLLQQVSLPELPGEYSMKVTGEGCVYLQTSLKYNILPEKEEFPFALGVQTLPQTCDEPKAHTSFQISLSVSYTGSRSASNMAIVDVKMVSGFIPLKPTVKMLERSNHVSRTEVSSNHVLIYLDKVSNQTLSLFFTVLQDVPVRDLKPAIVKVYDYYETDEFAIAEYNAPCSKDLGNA
Experimental: To determine whether fatty acids are capable of dissociating TGF- ? - ? 2M* complexes, various concentrations of arachidonic acid were added to a reaction mixture containing ^125I-TGF- ? 1 or ^125I-TGF ? β3 and α2M* which had been preincubated at room temperature for 30 mi 30 minutes at room temperature, the ^125I-TGF ? β isoform-α2M* complexes in the reaction mixtures were analyzed by 5% non-denaturing PAGE. […] However, lower concentrations of arachidonic acid were effective in inhibiting complex formation of ^125I-TGF- ? 1 and α2M* than were required to dissociate the ^125I-TGF- ? 1- ? 2M* complex.

125I-TGF-β2-α2M* complex = molecular target: T2, 125I-TGF-β2-α2M* complex (Homo sapiens, UniProt P01023); experiment: Dissociation of preformed 125I-TGF-β2-α2M* complex; assay type: binding; settings: added after 30 min preincubation of complex
T2 construct: was purified from pooled citrate-treate human plasma; from tissue; host or cells: pooled citrate-treated human plasma
T2 sequence (P01023 24-1474): T1 sequence (P01023 24-1474)

[1] = Plasma clearance of 125I-TGF-β2 with and without α2M* and arachidonic acid; assay type: in vivo, mice; settings: control experiments, no α2M*
Experimental: TGF ? β1-α2M* and TGF- ? 2- ? 2M* complexes are cleared from plasma by the ? liver (30). To test the possibility that fatty acids may be able to affect the plasma clearance of TGF ? β and α2M* complexes, ^125I-TGF ? β1 or ^125I-TGF- ? 2 were prei presence or absence of 10 μM arachidonic acid at room temperature for 30 min, and then injected into mice via tail vein according to published procedures (19). At several time intervals (10 sec, 1, 2, 3, 5, 10, 15, 20, 30 and 60 min) about 50 μl of blood was collected and counted by a γ-counter. […] The t 1+α2M* or ^125I-TGF- ? 2+α2M* were approximately 4 min. These twith published values of free ^125I-TGF- ? 1,2 and ^125I-TGF- ? 1,2-α2M* complexes, respe (19). In the presence of arachidonic acid, the t1/2s of ^125I-TGF ? β1+α2M* and ^125I-TGF α2M* were decreased to approximately 1-2 min; these are essentially identical to the t1/2s of free ^125I-TGF- ? 1 and ^125I-TGF ? β2 (FIGS. 7A and B). In control experiments, arachidonic acid did no affect the plasma clearance of free ^125I-TGF ? β1 and ^125I-TGF- ? 2.
Plasma clearance of ^125I-TGF ? β in the presence and absence of ? 2M*-^125I-TGF- ? 1 nM) or ^125I-TGF- ? 2 (1 nM) was pre-incubated with ? […] The radioactivity in the blood sample obtained at 10 s was taken as 100%.

What does the source list for `CCCCC/C=C\C/C=C\C/C=C\C/C=C\CCCC(=O)O` [arachidonic acid]?
dissociation of the 125I-TGF-β1-α2M* complex (125I-TGF-β1-α2M* complex): able to dissociate; concentration dissociating the 125I-TGF-β2-α2M* complex (125I-TGF-β2-α2M* complex): 250 µM; effect on plasma clearance of free 125I-TGF-β2 [1]: did no affect

From patent publication US20040229791A1, “Compositions and methods of modulating TGF-beta activity by fatty acids” (priority 2002, published 2004)
